As usually defined, the Kd is the equilibrium constant for the complex coming apart. A high value points to weaker binding.

B1: mouse Gpr54^336–342 peptide (peptide, UniProt Q91V45 336-342, looked up)
peptide: RVCPCCR
notes: mouse Gpr54 (Kiss1 receptor), residues 336-342, said to correspond to the RxxPxxR motif; also called peptide of Gpr54^336–342 (RxxPxxR motif); source: synthetic peptide
B2: His-DUSP18 (enzyme, human, UniProt Q8NEJ0 1-188, looked up)
chain: MTAPSCAFPVQFRQPSVSGLSQITKSLYISNGVAANNKLMLSSNQITMVINVSVEVVNTLYEDIQYMQVPVADSPNSRLCDFFDPIADHIHSVEMKQGRTLLHCAAGVSRSAALCLAYLMKYHAMSLLDAHTWTKSCRPIIRPNSGFWEQLIHYEFQLFGKNTVHMVSSPVGMIPDIYEKEVRLMIPL
notes: full-length WT human DUSP18, in pMCSG7; In the SPR it is called 'DUSP18 protein'; removal of the tag is not mentioned; also called DUSP18 protein; WT-DUSP18; source: E. coli, purified; not shown: His, N-terminal, kept
B3: DUSP18 (C104S): enzymatically dead DUSP18 (C104S) mutant (protein)
chain: B2 chain with C104S
modifications: left off: Flag, C-terminal, kept
notes: enzymatically dead DUSP18 (C104S) mutant

Assay [1] has as its system Src / DUSP18 interaction. Kind of assay: Co-IP/IB: interaction of Src with DUSP18 in transfected 293T cells. It counts as cell-based. On the procedure:
Anti-Flag IP derived from 293 T cells transfected with HA-Src and either DUSP18-Flag or DUSP18 (C104S)-Flag constructs with or without Kp-10 treatment for 20 min were lysed and subjected to anti-FLAG IP (b). Phosphatase reaction products using His-DUSP18 and His-DUSP18 (C104S) proteins purified from E. coli and SRC proteins purified from Sf9 insect cells (c) and quantification of protein levels (d). Anti-Src IP derived from RAW264.7 cells treated with or without Kp-10 treatment for 20 min were lysed and subjected to anti-Src IP (e) and quantification of protein levels (f). g, h Src and Dusp18 co-localization was analyzed by IF staining in primary pre-osteoclasts treated with 10 nM Kp-10 treatment for 20 min. Representative images of endogenous Dusp18 and Src were shown by TIRF microscopy (g), and MOC was used to quantify the degree of colocalization in cells from multiple images taken randomly (h). Scale bar, 50 µm. i–m IB and quantification of protein levels analysis. Anti-Flag IP derived from 293 T cells transfected with HA-Src, GPR54-myc, and either DUSP18-Flag or DUSP18 (C104S)-Flag constructs after Kp-10 treatment for 20 min (i) and quantification of protein levels (j, k). […] Scale bars, 125 µm (n), and pits depth were quantified by confocal microscopy (o). […] P values were determined by one-way ANOVA analysis (d, f, j, k, m, o) or by two-tailed Student’s t-test (h). […]

The test system of assay [2] is GPR54 / Src interaction. Put plainly: Co-IP: interaction of GPR54 with Src in transfected 293T cells. It counts as cell-based, human. The settings on record: inhibitor 1 h (U73122 10 µM, Staurosporine 0.25 µM, LY3214996 10 µM, KN-93 10 µM, Saracatinib 10 µM), then 10 nM Kp-10 20 min. On the procedure: (§1) Data represent means ± SEM. P values were determined by one-way ANOVA analysis (b, c, e, g, i, k). Representative results were obtained from at least three independent experiments. Source data are provided as a Source Data file.
(§2) Whole-cell proteins were extracted using 1x RIPA buffer (25 mM Tris, pH7.5, 150 mM NaCl, 0.5% Sodium deoxycholate, 1% Triton-X-100) supplemented with protease inhibitors (Complete Mini, Roche) and phosphatase inhibitors (phosphatase inhibitor cocktail set I and II, Calbiochem). Immunoprecipitation and immunoblotting with indicated antibodies were performed as described in Supplementary Table 1. Image Jsoftware (V1.52) was used for quantification analysis. Uncropped and unprocessed blots are presented in the Supplementary Information file.
Error bars are ± SEM. […] Source data are provided as a Source Data file.

Assay [3] relates to DUSP18 / GPR54 interaction. Put plainly: Co-IP: interaction of DUSP18 with GPR54 in transfected 293T cells. It counts as cell-based, human. The settings on record: 293T; inhibitor 1 h (U73122 10 µM, Staurosporine 0.25 µM, LY3214996 10 µM, KN-93 10 µM, Saracatinib 10 µM), then 10 nM Kp-10 20 min. Here is the method:
as §1, §2
Supplementary Fig. 6 a, b IB and quantification of protein levels analysis. […] Error bars are ± SEM. P-values were determined by two-tailed Student’s t-test (b, e) or by one-way ANOVA analysis (h, j). *P <0.05, **P <0.01, ***P <0.001, ****P <0.0001. Representative results were observed from at least three independent experiments. Source data are provided as a Source Data file.

Assay [4] has as its system SH3 domain of Src. Put plainly: SH3 domain protein-binding array. To be noted: TranSignal SH3 Domain Array, GST-GPR54 CT overnight at 4 °C. On the procedure: SH3 domain protein-binding array was performed using TranSignal™ SH3 Domain Array kit (Cat. #MA3010). The kit was purchased from Panomics, and probed using GST-GPR54 CT. Purified different SH3 domain-containing proteins including the Src kinase family were spotted in duplicate on the membrane filter and tested for their binding to GST-GPR54 CT. Briefly, membrane filters were incubated with […] GST-GPR54 CT protein overnight at 4 °C. After washing the membrane, the GST antibody was incubated overnight at 4 °C. Protein binding was visualized by incubation with an HRP-conjugated antibody. Spots with stronger intensities indicated a higher binding affinity of GST-GPR54 CT with the SH3 domain-containing protein (s). SH3 domain proteins in the array were summarized in Supplementary Table 3.

Assay [5] concerns Dusp18 expression. Kind of assay: qPCR of Dusp18 mRNA in RAW264.7 cells. It counts as cell-based, mouse. To be noted: U73122 10 µM, Staurosporine 0.25 µM, LY3214996 20 µM, SB203580 10 µM for 1 h, then Kp-10 30 min. The source says: Anti-Flag IP of lysates derived from 293 T cells transfected with GPR54-flag and Src-HA constructs (d) and quantification results (e). Anti-Flag IP of lysates derived from 293 T cells transfected with GPR54-flag and DUSP18-HA constructs (f) and quantification results (g). Anti-Flag IP of lysates derived from 293 T cells transfected with Src-HA, and DUSP18-flag constructs (h) and quantification results (i). j, k IB analysis of lysates derived from WT BMMs and Gq/11 KO BMMs with or without Kp-10 treatment for 1 h (j) and quantification of results (k). l Working model of Kp-10 /Gpr54 mediated Src dephosphorylation. […] However, both active Src and DUSP18 were recruited by GPR54 through the PR motif in GPR54 CT along with the increase of Kp-10 dose (1, 10 nM). […] Data represent means ± SEM. P values were determined by one-way ANOVA analysis (b, c, e, g, i, k). Representative results were obtained from at least three independent experiments. Source data are provided as a Source Data file.
Total RNA was extracted from RAW264.7 cells using TRIzol® (TaKaRa) and then reverse transcribed into cDNA using the PrimeScript RT-PCR Kit (TaKaRa, RR014) according to the manufacturer’s instructions. The cDNA products were used for quantitative PCR analysis by SYBR Mix (TaKaRa, RR064). Sequences of the indicated primers are described in Supplementary Table 2.
(In qPCR the cycle at which signal appears reflects the starting amount.)

Assay [6] concerns the target B2. Kind of assay: SPR; Biacore T200, DUSP18 protein immobilised on CM5 by amine coupling (25 ug/mL, pH 7.4, PBS); 25 °C, 30 µl/minute, PBS with 0.05% Tween-20; kinetics analysis, 1:1 model. The settings on record: both partners purified. (SPR reads the build-up and loss of mass on a sensor chip optically.)
For assay [7], the target named is T1, His-SRC protein, Src (G85-L536) (human, UniProt P12931 85-536).
T1 construct: human Src, G85-L536, in pFastBac HT B; In the SPR it is called 'SRC protein'; removal of the tag is not mentioned; source: Sf9 (Bac-to-Bac baculovirus), purified; not shown: His6, N-terminal, kept
Kind of assay: SPR; Biacore T200, DUSP18 and Src; which of the two was immobilised is not told; 25 °C, 30 µl/minute, PBS with 0.05% Tween-20; kinetics analysis, 1:1 model. To be noted: both partners purified.

The subject of assay [8] is Src (Y416). Put plainly: in vitro phosphatase activity assay with Src. It counts as biochemical, human. To be noted: purified proteins; 30 min at 30 °C; Western blot. On the procedure: The C terminus of human GPR54 (H329- L398) and mouse Gpr54 (R331- L396) cDNAs were subcloned into a pGEX-4T2 vector. For purification of full-length WT human DUSP18 and DUSP18 (C104S) proteins, DUSP18 was cloned into pMCSG7 vector. For purification of Src (G85-L536) protein, cDNAs of human Src were subcloned into pFastBac HT B vector with an N-terminal 6xHis tag and expressed in Sf9 cells (Expression Systems) using the Bac-to-Bac Baculovirus Expression System (Invitrogen) for 48 h. For purification of the Src (G85-V247)-GPR54 (333–356 with C338S, C340S mutation) recombinant fusion protein, the C-terminus of GPR54 (333–356 with C338S and C340S mutation) was linked to the C terminus of Src SH3-SH2 domain (G85-V247), which was subcloned into the pMCSG7 vector.
For the total phosphatase activity assay, the Co-IP experiment was carried out after Kp-10 treatment of RAW264.7 cells for 20 min, followed by lysis and incubation with the Gpr54 antibody. The assay was performed according to the phosphatase assay kit (Sigma-Aldrich,17-313). For the DUSP18 phosphatase activity assay, His-DUSP18 and His-DUSP18 (C104S) were purified from E Coli, and His-Src was purified from Sf9 insect cells. His-DUSP18 and His-DUSP18 (C104S) were incubated with His-Src in 1x phosphatase buffer (20 mM HEPES, 20 mM MgCl2, 0.03% β-mercaptoethanol)[51] for 30 min at 30 °C with gentle shaking. […]
(A western blot detects proteins with antibodies after separation by electrophoresis.)

Residue numbers refer to the chain shown, from its start. In names and notes the source's numbering stands.

`CN1CCN(CCOc2cc(OC3CCOCC3)c3c(Nc4c(Cl)ccc5c4OCO5)ncnc3c2)CC1` [Saracatinib]: in assay [1] (293T, inhibitor 1 h (U73122 10 µM, Staurosporine 0.25 µM, LY3214996 10 µM, KN-93 10 µM, Saracatinib 10 µM), then 10 nM Kp-10 20 min), the “effect on Kp-10 induced interaction of Src with DUSP18” value was “obvioulsly dampened”. In addition, the “effect on Kp-10 induced interaction of GPR54 with Src” value (“effect … with Src” for short) in assay [2] is listed as “obvioulsly dampened”. Also, the “effect on Kp-10 induced interaction of GPR54 with DUSP18” value in assay [3] is recorded as “obvioulsly dampened”.
For the molecule “GPR54 CT: C terminus of human GPR54 (H329- L398)”, the “interaction with SH3 domains” value in assay [4] is “interacted with the SH3 domain of Src most obviously”.
For `Cn1nccc1Nc1nccc(-c2cc3c(s2)C(C)(C)N(CCN2CCOCC2)C3=O)n1` [LY3214996], the “effect … with Src” value in assay [2] is recorded as “not by the inhibitors”. In addition, the “expression of Dusp18 (mRNA)” value in assay [5] is reported as “inhibited”.
`CN[C@@H]1C[C@H]2O[C@@](C)([C@@H]1OC)n1c3ccccc3c3c4c(c5c6ccccc6n2c5c31)C(=O)NC4` [Staurosporine]: the “effect … with Src” value in assay [2] is reported as “not by the inhibitors”. The “expression of Dusp18 (mRNA)” value in assay [5] was “inhibited”.
Molecule B1 displayed a Kd in assay [6] of 1.8 µM.
In turn, B2 came in with an equilibrium dissociation constant (Kd) in assay [7] of 0.0059 µM.
As for B3, in assay [1] (anti-Flag IP, 293T cells transfected with HA-Src), the “interaction with Src by Co-IP” value is given as “eliminated the interaction with Src”. For the same molecule, the “dephosphorylation of Src (Y416)” value in assay [8] was “had no activity”.

Source of the values: publication PMC10861593, “Kisspeptin-10 binding to Gpr54 in osteoclasts prevents bone loss by activating Dusp18-mediated dephosphorylation of Src” (Nature Communications, 2024).
